This note sets out measurements from patent US8853424B2 (Japan Science and Technology Agency, priority 2008, dated 2014).

Assay [1] relates to Truncated N-terminal huntington 150 Q-EGFP-Neuron 2a cells. Kind of assay: Measurement of x-Fold (polyglutamine aggregation inhibitory activity). The class given is cell-based. As for the experimental part: In the present invention, the polyglutamine aggregation inhibitory activity (x-Fold) can be measured, for example, by the method described in the Example.
The number of the aggregated cells, and the total number of cells were counted by Array Scan V T1 (manufactured by Cellomics, Pittuburg, USA), and the ratio of the aggregated cells to the total number of cells was determined (x-Fold). […]

In another assay the test system is transglutaminase (TGase). Kind of assay: Measurement of TG (TGase inhibitory activity, monodansyl cadaverine / N,N-dimethylcasein fluorescence, FDSS 3000). In kind it is biochemical. The method, boiled down:
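Compound (1 μL of 10 mM stock) added to 0.1 mL reaction: 100 mM HEPES-NaOH pH 7.5, 1 mM CaCl2, 20 μM monodansyl cadaverine, 0.05 mg/mL N,N-dimethylcasein, 5 μg/mL TGase. Rate of fluorescence change at 340 nm measured; DMSO control set to 100; TG50 is the concentration halving activity.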

Assay [2] concerns SOC (store operated calcium channel). Kind of assay: Measurement of SOC IC50 (thapsigargin store depletion, calcium re-addition, CHO cells). The settings on record: read-out: SOC IC50. In kind it is cell-based. As for the experimental part: The SOC (store operated calcium channel)-suppressive action can be measured by the method described in the Example and using, for example, FDSS 3000.
CHO cell culture medium was replaced with a BSS solution which is an extracellular fluidfree of calcium, the compound of the present invention was added 1 min later, and 1 μM thapsigargin was allowed to act thereon 2 min later to deplete intracellular calcium store. […]

The mark [3] stands for this setting: polyglutamine aggregation, Truncated N-terminal huntington 150 Q-EGFP-Neuron 2a cells.
[4] abbreviates: ratio of aggregated cells to total number of cells, compound 20 μM, 20 hr, almost 1 without compound, smaller = stronger inhibition.
[5] abbreviates: TGase activity with compound (10 mM, 1 μL in 0.1 ml enzyme reaction solution), DMSO control taken as 100.
[6] abbreviates: TGase inhibitory activity measurement, unit not given.
The mark [7] stands for this setting: CHO cells, 1 μM thapsigargin, 2 mM calcium chloride.
The mark [8] stands for this setting: Cricetulus griseus, CHO, CHO cells, 1 μM thapsigargin, 2 mM calcium chloride.
[9] abbreviates: Cricetulus griseus, CHO, Table 1.
[10] abbreviates: polyglutamine aggregation inhibitory activity, Table 1.
The mark [11] stands for this setting: TGase inhibitory activity value, Table 1.

Like-named read-outs stand apart in the source and are kept apart here.

The term IC50 denotes the midpoint of a concentration-inhibition curve. Regarding `c1ccc(B(OCC2CCCCN2)c2cccc(COCc3cccc(B(OCC4CCCCN4)c4ccccc4)c3)c2)cc1` (centres unmarked) [Example 463, bis(3,3′-(phenyl-2-piperidylmethoxyboryl)benzyl)ether], the x-Fold in assay [1] (setting [3]) and in assay [1] (setting [4]) was 0.92 in each case. The “TGase activity remaining (% of DMSO control = 100)” value in the assay on transglutaminase (TGase) (setting [5]) and with transglutaminase (TGase) (setting [6]) was 24 throughout. Moreover, the 50% inhibitory concentration (IC50) in assay [2] (setting [7]) is 300 nM.

In the case of `NC(=O)CC(N)C(=O)OB(c1ccccc1)c1cccc(COCc2cccc(B(OC(=O)C(N)CC(N)=O)c3ccccc3)c2)c1` (centres unmarked) [Example 474, bis(3,3′-(phenyl-asparagineboryl)benzyl)ether], the x-Fold in assay [1] (polyglutamine aggregation, Truncated N-terminal huntington 150 Q-EGFP-Neuron 2a cells, listed as 3031) is listed as 1.04; in assay [1] (setting [4]), 1.04. Also, the “TGase activity remaining (% of DMSO control = 100)” value was 145 in the assay with transglutaminase (TGase) (setting [5]) and 145 in the assay with transglutaminase (TGase) (TGase inhibitory activity measurement, unit not given, listed as 3031). For the same compound, the 50% inhibitory concentration (IC50) in assay [2] (setting [7]) was 500 nM.

Turning to `NCCSB(c1ccccc1)c1ccc(COCc2ccc(B(SCCN)c3ccccc3)cc2)cc1` [Example 451, bis(4,4′-(phenyl-aminoethylthioboryl)benzyl)ether], the x-Fold in assay [1] (setting [3]) and in assay [1] (setting [4]) was 0.91 in each case. Further, the “TGase activity remaining (% of DMSO control = 100)” value in the assay with transglutaminase (TGase) (setting [5]) and with transglutaminase (TGase) (setting [6]) was 6 each time. For the same compound, in assay [2] (setting [7]), the 50% inhibitory concentration (IC50) turned out to be 1400 nM.

As for `NCCOB(c1ccc(COCc2ccc(B(OCCN)c3ccc(C(F)(F)F)cc3)cc2)cc1)c1ccc(C(F)(F)F)cc1` [Example 426, bis(4,4′-(p-trifluoromethylphenyl-aminoethoxyboryl)benzyl)ether], the x-Fold in assay [1] (setting [3]) and in assay [1] (setting [4]) was 0.93 throughout. In addition, the “TGase activity remaining (% of DMSO control = 100)” value in the assay on transglutaminase (TGase) (setting [5]) and in the assay on transglutaminase (TGase) (setting [6]) was 19 each time. In assay [2] (setting [7]), the IC50 was found to be 1200 nM.

Take `NC(COB(c1ccccc1)c1ccc(Oc2ccc(B(OCC(N)Cc3ccccc3)c3ccccc3)cc2)cc1)Cc1ccccc1` (centres unmarked) [Example 480, bis(4,4′-(phenyl-2-benzyl-2-amino-ethoxyboryl)phenyl)ether]: the x-Fold in assay [1] (setting [3]) and in assay [1] (setting [4]) was 0.66 throughout. For the same compound, the “TGase activity remaining (% of DMSO control = 100)” value with transglutaminase (TGase) (setting [5]) and with transglutaminase (TGase) (setting [6]) was 59 in each case. In addition, the concentration for half-maximal inhibition (IC50) in assay [2] (setting [7]) amounted to 1500 nM.

Turning to `NCCCC(N)C(=O)OB(c1ccccc1)c1ccccc1` (centres unmarked) [Example 308, diphenyl(ornithinate-O,N)borane], the x-Fold worked out at 1.05 in assay [1] (polyglutamine aggregation inhibitory activity, Table 1, listed as 7020) and 1.05 in assay [1] (setting [4]). Further, the “TGase activity remaining (% of DMSO control = 100)” value was 27 in the assay on transglutaminase (TGase) (setting [5]) and 27 with transglutaminase (TGase) (TGase inhibitory activity value, Table 1, listed as 7020). In addition, the IC50 in assay [2] (setting [8]) and in assay [2] (setting [9]) was 500 nM each time.

For the compound `CNCCOB(c1ccccc1)c1ccc(Oc2ccc(B(OCCNC)c3ccccc3)cc2)cc1` [Example 386, bis(4,4′-(phenyl-N-methylaminoethoxyboryl)phenyl)ether], the x-Fold in assay [1] (setting [10]) and in assay [1] (setting [4]) was 0.98 throughout. The “TGase activity remaining (% of DMSO control = 100)” value in the assay on transglutaminase (TGase) (setting [5]) and in the assay on transglutaminase (TGase) (setting [11]) was 10 each time. Also, the concentration for half-maximal inhibition (IC50) in assay [2] (setting [7]) came out at 500 nM.

As for `NCC(OB(c1ccccc1)c1ccc(Oc2ccc(B(OC(CN)c3ccccc3)c3ccccc3)cc2)cc1)c1ccccc1` (centres unmarked) [Example 434, bis(4,4′-(phenyl-2-amino-1-phenylethoxyboryl)phenyl)ether], the results for the x-Fold in assay [1] (setting [10]), in assay [1] (setting [3]) and in assay [1] (setting [4]) were 0.06, 0.60 and 0.60, respectively. Besides, the “TGase activity remaining (% of DMSO control = 100)” value with transglutaminase (TGase) (setting [5]) and with transglutaminase (TGase) (setting [6]) was 43 each time. The IC50 was determined as 400 nM in assay [2] (setting [7]) and 1500 nM in assay [2] (Table 1).

With `OB(c1ccccc1)c1ccc(B(O)c2ccccc2)cc1` [Example 252, 1,4-bis(phenylhydroxyboryl)benzene], the x-Fold in assay [1] (setting [10]) and in assay [1] (setting [4]) was 0.95 in each case. Further, the “TGase activity remaining (% of DMSO control = 100)” value in the assay with transglutaminase (TGase) (setting [5]) and in the assay with transglutaminase (TGase) (setting [11]) was 93 in each case. In addition, the IC50 in assay [2] (setting [8]) and in assay [2] (setting [9]) was 500 nM throughout.

With `OB(c1ccccc1)c1cccc(B(O)c2ccccc2)c1` [Example 147, 1,3-bis(phenylhydroxyboryl)benzene], the x-Fold in assay [1] (setting [4]) is reported as 0.87. Besides, the “TGase activity remaining (% of DMSO control = 100)” value with transglutaminase (TGase) (setting [5]) is reported as 101. Further, in assay [2] (setting [7]), the 50% inhibitory concentration (IC50) is 20000 nM.

With `NCCOB(c1ccccc1)c1ccc(COc2ccc(B(OCCN)c3ccccc3)cc2)cc1` [Example 371, (4-phenylaminoethoxyborylphenyl)(4′-phenylaminoethoxyborylbenzyl)ether], the x-Fold in assay [1] (setting [10]) and in assay [1] (setting [4]) was 0.85 throughout. The “TGase activity remaining (% of DMSO control = 100)” value in the assay with transglutaminase (TGase) (setting [5]) and with transglutaminase (TGase) (setting [11]) was 16 throughout. In addition, the IC50 in assay [2] (setting [8]) and in assay [2] (setting [9]) was 2000 nM throughout.

For `CN1CCCCC1COB(c1ccccc1)c1ccc(COCc2ccc(B(OCC3CCCCN3C)c3ccccc3)cc2)cc1` (centres unmarked) [Example 457, bis(4,4′-(phenyl-N-methylpiperidine-methoxyboryl)benzyl)ether], the x-Fold in assay [1] (setting [3]) and in assay [1] (setting [4]) was 1.10 in each case. The “TGase activity remaining (% of DMSO control = 100)” value with transglutaminase (TGase) (setting [5]) and with transglutaminase (TGase) (setting [6]) was 30 throughout. The half-maximal inhibitory concentration (IC50) in assay [2] (setting [7]) came to 600 nM.

Turning to `NCCOB(c1ccc(Cl)c(F)c1)c1ccc(Cl)c(F)c1` [Example 234, di(4-chloro-3-fluoro-phenyl) 2-aminoethylborinate], the x-Fold in assay [1] (polyglutamine aggregation inhibitory activity, Table 1, listed as 4143) was 1.07; in assay [1] (setting [4]), 1.07. Also, the “TGase activity remaining (% of DMSO control = 100)” value with transglutaminase (TGase) (setting [5]) turned out to be 98; in the assay with transglutaminase (TGase) (TGase inhibitory activity value, Table 1, listed as 4143) it was 98. Also, the IC50 in assay [2] (setting [8]) and in assay [2] (setting [9]) was 500 nM in each case.

Consider `O=C(OB(c1ccccc1)c1ccccc1)C1CCCN1` (centres unmarked) [Example 277, diphenyl(prolinate-O,N)borane], for which the x-Fold in assay [1] (setting [10]) and in assay [1] (setting [4]) was 0.98 throughout. Moreover, the “TGase activity remaining (% of DMSO control = 100)” value in the assay on transglutaminase (TGase) (setting [5]) and with transglutaminase (TGase) (setting [11]) was 105 in each case. Also, the IC50 in assay [2] (setting [8]) and in assay [2] (setting [9]) was 300 nM each time.

Take `CC(C)(C)c1cc(B(O)c2ccccc2)c2c(c1)C(C)(C)c1cc(C(C)(C)C)cc(B(O)c3ccccc3)c1O2` [Example 377, 4,5-di(phenylhydrixyboryl)-2,7-di-tert-butyl-9,9-dimethylxanthrene]: the x-Fold in assay [1] (setting [10]) and in assay [1] (setting [4]) was 0.75 each time. In addition, the “TGase activity remaining (% of DMSO control = 100)” value in the assay on transglutaminase (TGase) (setting [5]) and in the assay with transglutaminase (TGase) (setting [11]) was 70 throughout. For the same compound, the IC50 in assay [2] (setting [8]) and in assay [2] (setting [9]) was > 20000 nM in each case.

As to `NC(=O)CCC(N)C(=O)OB(c1ccccc1)c1ccc(Oc2ccc(B(OC(=O)C(N)CCC(N)=O)c3ccc(CO)cc3)cc2)cc1` (centres unmarked) [Example 394, (4-(phenyl-glutamineboryl)phenyl)(4′-(hydroxymethylphenyl-glutamineboryl)phenyl)ether], the x-Fold in assay [1] (setting [10]) and in assay [1] (setting [4]) was 0.44 in each case. Moreover, the “TGase activity remaining (% of DMSO control = 100)” value with transglutaminase (TGase) (setting [5]) and with transglutaminase (TGase) (setting [11]) was 41 each time. The concentration for half-maximal inhibition (IC50) in assay [2] (setting [8]) and in assay [2] (setting [9]) was 1500 nM each time.

Take `N=C(N)NCCCC(N)C(=O)OB(c1ccccc1)c1ccccc1` (centres unmarked) [Example 122, diphenyl(argininate-O,N)borane]: the x-Fold in assay [1] (setting [10]) and in assay [1] (setting [4]) was 0.98 throughout. Besides, the “TGase activity remaining (% of DMSO control = 100)” value with transglutaminase (TGase) (setting [5]) and in the assay with transglutaminase (TGase) (setting [11]) was 93 each time. Moreover, the concentration for half-maximal inhibition (IC50) in assay [2] (setting [8]) and in assay [2] (setting [9]) was 7000 nM each time.

As to `c1ccc(COB(c2ccc(Oc3ccc(B(OCc4ccccn4)c4cccc5ccccc45)cc3)cc2)c2cccc3ccccc23)nc1` [Example 443, bis(4,4′-(naphthyl-2-pyridylmethoxyboryl)phenyl)ether], the x-Fold in assay [1] (setting [3]) and in assay [1] (setting [4]) was 0.63 throughout. For the same compound, the “TGase activity remaining (% of DMSO control = 100)” value in the assay with transglutaminase (TGase) (setting [5]) and in the assay on transglutaminase (TGase) (setting [6]) was 84 each time. Besides, the 50% inhibitory concentration (IC50) in assay [2] (setting [7]) was determined as 3000 nM.

As to `CNCCOB(c1ccc(COCc2ccc(B(OCCNC)c3ccc(C)c(Cl)c3)cc2)cc1)c1ccc(C)c(Cl)c1` [Example 421, bis(4,4′-(3-chloro-4-methylphenyl-N-methylaminoethoxyboryl)benzyl)ether], the x-Fold worked out at 0.87 in assay [1] (setting [10]), 1.03 in assay [1] (setting [3]) and 1.03 in assay [1] (setting [4]). In addition, the “TGase activity remaining (% of DMSO control = 100)” value with transglutaminase (TGase) (setting [5]) and with transglutaminase (TGase) (setting [6]) was −1 in each case. Further, the IC50 in assay [2] (setting [7]) worked out at 1200 nM.
